The values that follow come from patent US20230077723A1, “N-SUBSTITUTED-3,4-(FUSED 5-RING)-5-PHENYL-PYRROLIDINE-2-ONE COMPOUNDS AS INHIBITORS OF ISOQC AND/OR QC ENZYME” (Scenic Immunology B.V., priority 2019, published 2023).

The target in one assay is T1, human isoQC (S53-L382) (Homo sapiens, UniProt Q9NXS2).
T1 construct: enzymatically active region of human isoQC (S53-L382; see, e.g., Huang et al., 2011); GST-Enterokinase site (N, cleaved yes); made in house; host or cells: E. coli
Description: Assay 3 - isoQC potency, fluorescent enzymatic assay. Type of assay: biochemical. The following applies: fluorescent read-out; read-out: isoQc Pot. Assay No. 3. As for the experimental part:
For this assay specifically, isoQC production was performed slightly different than described in the general methods: The Golgi luminal, enzymatically active region of human isoQC (S53-L382; see, e.g., Huang et al., 2011) was obtained by expression in E. coli of an N-terminally GST Enterokinase and C-terminally 6×His tagged construct in the pET41(+) vector and subsequent purification using Ni-NTA IMAC. Enterokinase digestion ensued, followed by another Ni-NTA IMAC purification, Superdex75 based size exclusion and finally a spin concentration using a 10 kDa molecular weight cutoff. The final protein is formulated in 50 mM Tris-HCl, 150 mM NaCl, 50% Glycerol, pH 7.8.
(§1) Pyroglutamylation was measured by conversion of glutamine-4-amino-7-methylcoumarine (H-Gln-AMC, Bachem) to pyroglutamyl-AMC, which is subsequently a specific substrate for pyroglutamylaminopeptidase (pGAPase, Qiagen), releasing free AMC which can be fluorescently detected. For a typical inhibition assay, 7.5 μL aliquots of threefold dilutions of test compound in 50 mM Tris pH8 buffer were plated in 384-well plates. 15 μL 20 μM h-Gln-AMC (diluted from a 40 mM stock dissolved in 25 mM HEPES using 50 mM Tris-HCl pH 8.0) was added to each well. Finally, 7.5 μL, 3 ng/μL recombinant isoQC enzyme was added and the reaction mixture was incubated for 1 hour at 37° C. A 5 minute incubation at 98° C. was then performed to denature the isoQC enzyme and stop the reaction.
(§2) To detect the amount of pyroglutamyl-AMC formed, a 0.125 U/mL pGAPase enzyme diluted in 50 mM Tris-HCl pH 8.0 containing 10 mM dithiothreitol (DTT) solution was prepared. 25 μL of the pyroglutamylation reaction mixture was transferred into an empty plate and to that, 25 μL of the pGAPase enzyme solution was added. Plates were then incubated for 25 minutes at room temperature before fluorescence readings were taken on an Envision2 plate reader with excitation set at 380 nm and emission at 450 nm.
DMSO concentrations during the assay never exceeded 1% and activities were compared to controls containing only the same amount of DMSO and no test compound. Controls were taken along containing pyroglutamylated-AMC (Bachem, dissolved at 10 mM in DMSO) instead of H-Gln-AMC to control for pGAPase inhibition. IC50 values are calculated using non-linear regression analysis with GraphPad Prism software.

Assay [1] has as its target T2, Recombinant QC enzyme (residues 33-361 of uniprot ID Q16769) (Homo sapiens, UniProt Q16769).
T2 construct: bacterial expression of residues 33-361 of uniprot ID Q16769; His tag (cleaved yes); made in house; host or cells: bacterial expression (pET32a)
Description: Assay 5 - QC potency, fluorescent enzymatic assay. Type of assay: biochemical. To be noted: fluorescent read-out; read-out: QC Pot. Assay No. 5.
Excerpt: Recombinant QC enzyme was produced by bacterial expression of residues 33-361 of uniprot ID Q16769, fused to a His tag, codon optimized and cloned into the pET32a plasmid backbone. After scale-up, expression and lysis, protein was purified by Ni-NTA IMAC, dialysed in the presence of Factor Xa, further purified by Ni-NTA reverse IMAC and finally filtrated for size on a Superdex 200 16/60 column. Final protein was concentrated using a spin concentrator at 10 kDa molecular weight cutoff and formulated in 150 mM NaCl, 50 mM Tris-HCl, 50% Glycerol, pH 8.0.
as §1, with “QC” for “isoQC”
as §2
DMSO concentrations during the assay never exceeded 1% and activities were compared to controls containing only the same amount of DMSO and no test compound. Controls were taken along containing pyroglutamylated-AMC (Bachem, dissolved at 10 mM in DMSO) instead of H-Gln-AMC to control for pGAPase inhibition.
IC50 values are calculated using non-linear regression analysis with GraphPad Prism software.

Assay [2] deals with pyroglutamylated CD47 (pE-CD47) in KBM7 cells. Description: Assay 6 - cell-based potency assay (pE-CD47 CC2C6 staining vs total CD47). To be noted: Homo sapiens, KBM-7, 72 h, CC2C6 signal, read-out: Cell Pot. Assay No. 6. Details: species or system human. The procedure, abridged:
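KBM7 cells received a 10-point 2-fold compound series for 72 h at 37 °C, then were stained with anti-CD47 clones 2D3 (total) and CC2C6 (pyroglutamylated) and analysed by flow cytometry on DAPI-negative cells. MFI was scaled between wild-type and CD47- or QPCTL-knockout cells; IC50 came from 3-parameter logistic fit of CC2C6 signal, top fixed at 1.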

T1 sequence (Q9NXS2 53-382): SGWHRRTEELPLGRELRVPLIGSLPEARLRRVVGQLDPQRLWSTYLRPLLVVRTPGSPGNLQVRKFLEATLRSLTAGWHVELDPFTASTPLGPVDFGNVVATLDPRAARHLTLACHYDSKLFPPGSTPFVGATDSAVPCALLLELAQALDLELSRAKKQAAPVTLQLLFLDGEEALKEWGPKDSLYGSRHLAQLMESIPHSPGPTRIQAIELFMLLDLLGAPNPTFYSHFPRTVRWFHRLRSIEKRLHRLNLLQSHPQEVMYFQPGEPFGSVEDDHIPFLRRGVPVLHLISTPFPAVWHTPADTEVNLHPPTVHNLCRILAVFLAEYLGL
T2 sequence (Q16769 33-361): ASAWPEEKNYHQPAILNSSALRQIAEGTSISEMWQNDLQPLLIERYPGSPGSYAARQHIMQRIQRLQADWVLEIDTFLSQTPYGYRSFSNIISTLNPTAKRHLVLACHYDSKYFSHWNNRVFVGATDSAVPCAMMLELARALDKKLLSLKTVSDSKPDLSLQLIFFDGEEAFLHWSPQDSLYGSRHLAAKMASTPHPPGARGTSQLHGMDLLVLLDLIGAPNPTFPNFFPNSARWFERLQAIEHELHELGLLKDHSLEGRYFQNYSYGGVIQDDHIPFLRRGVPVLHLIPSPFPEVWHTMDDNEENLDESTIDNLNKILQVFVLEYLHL

In the case of `Cc1nn(C)c2c1C(c1ccc(-c3cnn(C(F)(F)F)c3)cc1F)N(c1ccc3[nH]cnc3c1)C2=O` (centres unmarked) [FRPPO-165], the results for the IC50 (on human isoQC (S53-L382); in assay [1]; in assay [2]) were 0.025 to 0.1 µM, 0.1 to 5 µM and less than 1 µM, respectively.

Turning to `Cc1nn(C)c2c1C(c1ccc(-c3cnc(C(F)(F)F)s3)cc1F)N(c1ccc3[nH]cnc3c1)C2=O` (centres unmarked) [FRPPO-164], the IC50 at human isoQC (S53-L382) was 0.1 to 5 µM; in assay [1] it was 0.1 to 5 µM; in assay [2], less than 1 µM.

Consider `Cc1onc2c1C(c1ccc(-c3cnn(C(F)(F)F)c3)cc1F)N(c1ccc3[nH]cnc3c1)C2=O` (centres unmarked) [FRPPO-177], for which the results for the IC50 (on human isoQC (S53-L382); in assay [1]) were less than 0.025 µM and 0.025 to 0.1 µM, respectively.

For the compound `Cc1noc2c1C(c1ccc(-c3cnn(C(F)(F)F)c3)cc1F)N(c1ccc3[nH]cnc3c1)C2=O` (centres unmarked) [FRPPO-176], the IC50 was 0.025 to 0.1 µM at human isoQC (S53-L382) and 0.1 to 5 µM in assay [1].

On to `O=C1c2[nH]ncc2C(c2ccc(N3CCC(F)(F)C3)cc2F)N1c1ccc2[nH]cnc2c1` (centres unmarked) [FRPPO-171], for which the IC50 (at human isoQC (S53-L382); in assay [1]) was 0.1 to 5 µM in each case.

With `COc1n[nH]c2c1C(c1ccc(N3CCC(F)(F)C3)cc1F)N(c1ccc3[nH]cnc3c1)C2=O` (centres unmarked) [FRPPO-173], the IC50 (on human isoQC (S53-L382); in assay [1]) was 0.025 to 0.1 µM in each case.

As to `Cc1[nH]nc2c1C(c1ccc(N3CCC(F)(F)C3)c(F)c1F)N(c1ccc3[nH]cnc3c1)C2=O` (centres unmarked) [FRPPO-161], the IC50 at human isoQC (S53-L382) was 0.025 to 0.1 µM; in assay [1] it was 0.025 to 0.1 µM; in assay [2], less than 1 µM.

Consider `Cc1nn(C)c2c1C(c1ccc(-n3cc(C(F)(F)F)cn3)cc1F)N(c1ccc3[nH]cnc3c1)C2=O` (centres unmarked) [FRPPO-166], for which the values for the IC50 (on human isoQC (S53-L382); in assay [1]; in assay [2]) were 0.1 to 5 µM, 0.1 to 5 µM and 1 to 5 µM, respectively.
